Source: PubChem BioAssay AID328 (DTP/NCI, 2004)
Where “and” joins values, the source holds several entries; their conditions need not be identical. Equal entries are not always repeated. Toxic doses and inconclusive results are not listed.

Tested on: BDF1 mice, P388 leukemia ip, median survival T/C
Test: NCI In Vivo Anticancer Drug Screen. Data for tumor model P388 Leukemia (intraperitoneal) in B6D2F1 (BDF1) mice
Conditions: endpoint: median survival time, higher = longer survival
How it was run: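 Survival ratio, drug arm over vehicle arm, in mice with a transplanted tumour.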

COc1cc2cc3c4cc(OC)c(OC)cc4cc[n+]3c(C)c2cc1OC
T/C (dose: 8.0 mg/kg/injection, schedule: Q03HX024 (ip), vehicle: saline): 150 % of control
T/C (dose: 12.5 mg/kg/injection, schedule: Q01DX009 (ip), vehicle: Klucel (hydroxypropylcellulose) (HPC)): 105 % of control
T/C (dose: 12.5 mg/kg/injection, schedule: Q01DX009 (ip), vehicle: saline): 165 % of control
T/C (dose: 12.5 mg/kg/injection, schedule: Q01DX009 (ip), vehicle: water): 195 % of control
T/C (dose: 25.0 mg/kg/injection, schedule: Q01DX009 (ip), vehicle: water): 195 % of control
T/C (dose: 25.0 mg/kg/injection, schedule: Q04DX003 (ip), vehicle: water): 170 % of control
T/C (dose: 32.0 mg/kg/injection, schedule: Q03HX008 (ip), vehicle: saline): 154 % of control
T/C (dose: 32.0 mg/kg/injection, schedule: Q03HX024 (ip), vehicle: saline): 168 % of control
T/C (dose: 37.5 mg/kg/injection, schedule: Q01DX001 (ip), vehicle: saline): 154 % of control
T/C (dose: 37.5 mg/kg/injection, schedule: Q01DX009 (ip), vehicle: saline): 162 % of control
T/C (dose: 50.0 mg/kg/injection, schedule: Q01DX009 (ip), vehicle: saline): 172 % of control and 181 % of control and 184 % of control
T/C (dose: 50.0 mg/kg/injection, schedule: Q01DX009 (ip), vehicle: water): 190 % of control
T/C (dose: 50.0 mg/kg/injection, schedule: Q04DX003 (ip), vehicle: water): 190 % of control
T/C (dose: 64.0 mg/kg/injection, schedule: Q01DX009 (ip), vehicle: saline): 159 % of control
T/C (dose: 64.0 mg/kg/injection, schedule: Q01DX009 (sc), vehicle: saline): 100 % of control
T/C (dose: 64.0 mg/kg/injection, schedule: Q03HX024 (ip), vehicle: saline): 163 % of control
T/C (dose: 75.0 mg/kg/injection, schedule: Q01DX001 (ip), vehicle: saline): 158 % of control
T/C (dose: 75.0 mg/kg/injection, schedule: Q01DX009 (ip), vehicle: saline): 183 % of control
T/C (dose: 75.0 mg/kg/injection, schedule: Q04DX003 (ip), vehicle: saline): 150 % of control
T/C (dose: 100.0 mg/kg/injection, schedule: Q01DX001 (ip), vehicle: water): 195 % of control
T/C (dose: 100.0 mg/kg/injection, schedule: Q01DX009 (ip), vehicle: Klucel (hydroxypropylcellulose) (HPC)): 170 % of control
T/C (dose: 100.0 mg/kg/injection, schedule: Q01DX009 (ip), vehicle: saline with Tween-80): 159 % of control and 177 % of control and 195 % of control
T/C (dose: 100.0 mg/kg/injection, schedule: Q01DX009 (ip), vehicle: saline): 172 % of control and 195 % of control
T/C (dose: 100.0 mg/kg/injection, schedule: Q01DX009 (ip), vehicle: water): 210 % of control
T/C (dose: 100.0 mg/kg/injection, schedule: Q04DX002 (ip), vehicle: saline): 163 % of control
T/C (dose: 100.0 mg/kg/injection, schedule: Q04DX003 (ip), vehicle: saline): 153 % of control
T/C (dose: 100.0 mg/kg/injection, schedule: Q04DX003 (ip), vehicle: water): 190 % of control
T/C (dose: 128.0 mg/kg/injection, schedule: Q01DX009 (ip), vehicle: saline): 163 % of control
T/C (dose: 128.0 mg/kg/injection, schedule: Q01DX009 (sc), vehicle: saline): 100 % of control
T/C (dose: 128.0 mg/kg/injection, schedule: Q03HX008 (ip), vehicle: saline): 154 % of control
T/C (dose: 128.0 mg/kg/injection, schedule: Q03HX024 (ip), vehicle: saline): 181 % of control
T/C (dose: 150.0 mg/kg/injection, schedule: Q01DX001 (ip), vehicle: saline): 162 % of control
T/C (dose: 150.0 mg/kg/injection, schedule: Q01DX009 (ip), vehicle: saline): 195 % of control
T/C (dose: 150.0 mg/kg/injection, schedule: Q04DX003 (ip), vehicle: saline): 162 % of control
T/C (dose: 200.0 mg/kg/injection, schedule: Q01DX001 (ip), vehicle: water): 185 % of control
T/C (dose: 200.0 mg/kg/injection, schedule: Q01DX009 (ip), vehicle: saline with Tween-80): 86 % of control and 181 % of control and 218 % of control
T/C (dose: 200.0 mg/kg/injection, schedule: Q01DX009 (ip), vehicle: saline): 172 % of control and 196 % of control and 204 % of control
T/C (dose: 200.0 mg/kg/injection, schedule: Q01DX009 (ip), vehicle: water): 165 % of control
T/C (dose: 200.0 mg/kg/injection, schedule: Q04DX002 (ip), vehicle: saline): 157 % of control
T/C (dose: 200.0 mg/kg/injection, schedule: Q04DX003 (ip), vehicle: saline): 169 % of control and 204 % of control
T/C (dose: 200.0 mg/kg/injection, schedule: Q04DX003 (ip), vehicle: water): 205 % of control
T/C (dose: 256.0 mg/kg/injection, schedule: Q01DX009 (sc), vehicle: saline): 100 % of control
T/C (dose: 256.0 mg/kg/injection, schedule: Q03HX024 (ip), vehicle: saline): 122 % of control
T/C (dose: 256.0 mg/kg/injection, schedule: Q08DX002 (ip), vehicle: saline): 154 % of control
T/C (dose: 300.0 mg/kg/injection, schedule: Q01DX001 (ip), vehicle: saline): 158 % of control
T/C (dose: 300.0 mg/kg/injection, schedule: Q01DX009 (ip), vehicle: saline): 216 % of control
T/C (dose: 300.0 mg/kg/injection, schedule: Q04DX003 (ip), vehicle: saline): 170 % of control
T/C (dose: 400.0 mg/kg/injection, schedule: Q01DX001 (ip), vehicle: water): 170 % of control
T/C (dose: 400.0 mg/kg/injection, schedule: Q01DX009 (ip), vehicle: saline with Tween-80): 181 % of control
T/C (dose: 400.0 mg/kg/injection, schedule: Q01DX009 (ip), vehicle: saline): 90 % of control
T/C (dose: 400.0 mg/kg/injection, schedule: Q04DX002 (ip), vehicle: saline): 163 % of control and 191 % of control
T/C (dose: 400.0 mg/kg/injection, schedule: Q04DX003 (ip), vehicle: saline): 180 % of control and 190 % of control
T/C (dose: 400.0 mg/kg/injection, schedule: Q04DX003 (ip), vehicle: water): 240 % of control
T/C (dose: 512.0 mg/kg/injection, schedule: Q01DX001 (ip), vehicle: saline): 163 % of control
T/C (dose: 512.0 mg/kg/injection, schedule: Q01DX009 (sc), vehicle: saline): 109 % of control
T/C (dose: 512.0 mg/kg/injection, schedule: Q08DX002 (ip), vehicle: saline): 159 % of control
T/C (dose: 600.0 mg/kg/injection, schedule: Q01DX001 (ip), vehicle: saline): 200 % of control
T/C (dose: 600.0 mg/kg/injection, schedule: Q01DX009 (ip), vehicle: saline): 116 % of control
T/C (dose: 600.0 mg/kg/injection, schedule: Q04DX003 (ip), vehicle: saline): 170 % of control
T/C (dose: 800.0 mg/kg/injection, schedule: Q04DX003 (ip), vehicle: saline): 181 % of control
T/C (dose: 1024.0 mg/kg/injection, schedule: Q01DX001 (ip), vehicle: saline): 109 % of control
T/C (dose: 1024.0 mg/kg/injection, schedule: Q01DX009 (sc), vehicle: saline): 100 % of control
T/C (dose: 1024.0 mg/kg/injection, schedule: Q08DX002 (ip), vehicle: saline): 177 % of control
T/C (dose: 2048.0 mg/kg/injection, schedule: Q01DX009 (sc), vehicle: saline): 100 % of control
T/C (dose: 2048.0 mg/kg/injection, schedule: Q04DX003 (ip), vehicle: saline): 109 % of control
